In article PMC12586182 (Frontiers in Oncology, 2025):

Key:
Experiment in all cases: Kinase panel profiling at 1 µmol/L (mobility shift assay, Carna)
Assay type in all cases: biochemical
Settings in all cases: 1 µmol/L of BTK inhibitor
[1] = target: T1, FER (Homo sapiens, UniProt P16591)
T1 construct: purchased Carna Biosciences

[2] = target: T2, FMS (Homo sapiens, UniProt P07333)
T2 construct: purchased Carna Biosciences

[3] = target: T3, MARK1 (Homo sapiens, UniProt Q9P0L2)
T3 construct: purchased Carna Biosciences

[4] = target: T4, PRKX (Homo sapiens, UniProt P51817)
T4 construct: purchased Carna Biosciences
T4 sequence (P51817 1-358): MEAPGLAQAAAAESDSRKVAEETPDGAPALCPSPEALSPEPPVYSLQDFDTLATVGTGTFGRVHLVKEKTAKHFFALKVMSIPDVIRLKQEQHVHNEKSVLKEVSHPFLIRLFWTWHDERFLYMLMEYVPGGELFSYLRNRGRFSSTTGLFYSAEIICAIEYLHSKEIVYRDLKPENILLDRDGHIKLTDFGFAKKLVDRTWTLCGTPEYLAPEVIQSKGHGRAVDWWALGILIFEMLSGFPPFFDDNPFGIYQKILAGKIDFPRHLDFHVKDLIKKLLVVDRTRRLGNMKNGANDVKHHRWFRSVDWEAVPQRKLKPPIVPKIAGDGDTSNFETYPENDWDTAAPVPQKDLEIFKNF

[5] = target: T5, CaMK4 (Homo sapiens, UniProt Q16566)
T5 construct: purchased Carna Biosciences
T5 sequence (Q16566 1-473): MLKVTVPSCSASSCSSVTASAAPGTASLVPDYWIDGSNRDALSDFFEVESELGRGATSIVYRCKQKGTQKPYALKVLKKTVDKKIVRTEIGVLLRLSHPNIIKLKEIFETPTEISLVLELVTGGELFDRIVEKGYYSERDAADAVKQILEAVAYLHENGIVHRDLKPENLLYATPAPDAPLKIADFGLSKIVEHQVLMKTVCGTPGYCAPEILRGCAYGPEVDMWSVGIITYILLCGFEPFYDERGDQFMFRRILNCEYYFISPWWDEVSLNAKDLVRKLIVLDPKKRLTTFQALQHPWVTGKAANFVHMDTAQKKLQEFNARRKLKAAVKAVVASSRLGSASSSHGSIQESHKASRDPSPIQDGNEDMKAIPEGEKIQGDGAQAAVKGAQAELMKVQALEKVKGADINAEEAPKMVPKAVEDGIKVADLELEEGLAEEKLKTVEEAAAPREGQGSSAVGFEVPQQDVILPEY

[6] = target: T6, MET (Homo sapiens, UniProt P08581)
T6 construct: purchased Carna Biosciences

[7] = target: T7, AurA/TPX2 (Homo sapiens, UniProt O14965)
T7 construct: purchased Carna Biosciences
T7 sequence (O14965 1-403): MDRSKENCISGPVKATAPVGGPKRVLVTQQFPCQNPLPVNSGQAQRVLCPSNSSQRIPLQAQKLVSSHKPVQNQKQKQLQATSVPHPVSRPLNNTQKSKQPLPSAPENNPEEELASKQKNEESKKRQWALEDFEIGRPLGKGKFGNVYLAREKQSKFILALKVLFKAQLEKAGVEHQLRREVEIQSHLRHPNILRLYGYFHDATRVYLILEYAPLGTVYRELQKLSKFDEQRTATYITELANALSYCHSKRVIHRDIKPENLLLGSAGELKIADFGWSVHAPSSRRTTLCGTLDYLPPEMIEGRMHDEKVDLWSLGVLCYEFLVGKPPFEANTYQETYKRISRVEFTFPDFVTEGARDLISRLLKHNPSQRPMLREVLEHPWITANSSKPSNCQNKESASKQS
T7 sequence (Q9ULW0 1-43 partner limits assumed): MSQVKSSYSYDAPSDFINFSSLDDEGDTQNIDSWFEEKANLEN

[8] = target: T8, skMLCK (Homo sapiens, UniProt Q9H1R3)
T8 construct: purchased Carna Biosciences

[9] = target: T9, EPHA8 (Homo sapiens, UniProt P29322)
T9 construct: purchased Carna Biosciences
T9 sequence (P29322 28-1005): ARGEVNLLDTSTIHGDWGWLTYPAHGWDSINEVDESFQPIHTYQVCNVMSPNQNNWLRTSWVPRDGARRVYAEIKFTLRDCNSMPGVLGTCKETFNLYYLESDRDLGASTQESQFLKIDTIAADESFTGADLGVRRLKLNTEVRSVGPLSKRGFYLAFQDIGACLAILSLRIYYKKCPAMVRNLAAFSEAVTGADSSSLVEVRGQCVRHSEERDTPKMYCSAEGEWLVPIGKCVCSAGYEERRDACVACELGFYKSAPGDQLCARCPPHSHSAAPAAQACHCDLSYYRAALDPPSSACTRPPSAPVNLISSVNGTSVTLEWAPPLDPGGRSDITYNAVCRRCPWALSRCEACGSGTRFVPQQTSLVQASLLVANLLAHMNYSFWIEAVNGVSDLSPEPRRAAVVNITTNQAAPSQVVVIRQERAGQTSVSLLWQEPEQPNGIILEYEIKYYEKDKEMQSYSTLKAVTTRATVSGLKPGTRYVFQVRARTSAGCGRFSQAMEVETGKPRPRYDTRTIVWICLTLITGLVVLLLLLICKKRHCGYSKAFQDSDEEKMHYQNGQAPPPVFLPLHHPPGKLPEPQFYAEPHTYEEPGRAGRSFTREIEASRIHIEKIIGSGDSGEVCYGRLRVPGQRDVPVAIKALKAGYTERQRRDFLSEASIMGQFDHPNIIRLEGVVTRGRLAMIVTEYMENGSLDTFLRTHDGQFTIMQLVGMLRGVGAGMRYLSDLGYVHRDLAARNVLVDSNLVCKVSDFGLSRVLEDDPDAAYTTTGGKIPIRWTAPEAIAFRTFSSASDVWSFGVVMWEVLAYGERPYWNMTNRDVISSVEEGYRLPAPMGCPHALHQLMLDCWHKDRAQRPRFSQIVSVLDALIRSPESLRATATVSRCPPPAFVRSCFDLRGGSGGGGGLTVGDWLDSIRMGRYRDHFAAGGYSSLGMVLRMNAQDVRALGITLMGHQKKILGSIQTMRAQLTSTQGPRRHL

T1 sequence (P16591 whole entry): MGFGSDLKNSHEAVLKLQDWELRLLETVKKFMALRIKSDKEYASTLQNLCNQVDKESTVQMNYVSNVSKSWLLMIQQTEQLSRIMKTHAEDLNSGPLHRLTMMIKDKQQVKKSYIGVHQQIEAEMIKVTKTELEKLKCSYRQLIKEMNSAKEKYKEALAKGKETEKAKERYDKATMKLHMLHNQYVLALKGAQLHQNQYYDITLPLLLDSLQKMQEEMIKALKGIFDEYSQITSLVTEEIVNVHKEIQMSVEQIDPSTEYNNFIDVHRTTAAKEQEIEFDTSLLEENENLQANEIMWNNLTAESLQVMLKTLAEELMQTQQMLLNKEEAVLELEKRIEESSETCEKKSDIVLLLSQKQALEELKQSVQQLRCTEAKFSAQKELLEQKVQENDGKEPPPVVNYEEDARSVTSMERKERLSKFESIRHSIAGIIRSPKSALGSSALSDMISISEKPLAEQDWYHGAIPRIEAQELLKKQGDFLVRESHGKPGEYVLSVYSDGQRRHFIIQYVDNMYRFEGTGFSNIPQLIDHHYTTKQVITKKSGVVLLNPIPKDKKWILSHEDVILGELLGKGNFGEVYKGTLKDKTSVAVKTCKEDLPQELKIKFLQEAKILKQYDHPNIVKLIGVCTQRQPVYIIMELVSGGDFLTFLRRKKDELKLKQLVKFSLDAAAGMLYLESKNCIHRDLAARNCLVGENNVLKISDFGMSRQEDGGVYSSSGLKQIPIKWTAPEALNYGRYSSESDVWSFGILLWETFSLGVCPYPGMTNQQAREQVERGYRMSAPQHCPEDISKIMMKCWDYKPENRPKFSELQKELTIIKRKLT
T8 sequence (Q9H1R3 whole entry): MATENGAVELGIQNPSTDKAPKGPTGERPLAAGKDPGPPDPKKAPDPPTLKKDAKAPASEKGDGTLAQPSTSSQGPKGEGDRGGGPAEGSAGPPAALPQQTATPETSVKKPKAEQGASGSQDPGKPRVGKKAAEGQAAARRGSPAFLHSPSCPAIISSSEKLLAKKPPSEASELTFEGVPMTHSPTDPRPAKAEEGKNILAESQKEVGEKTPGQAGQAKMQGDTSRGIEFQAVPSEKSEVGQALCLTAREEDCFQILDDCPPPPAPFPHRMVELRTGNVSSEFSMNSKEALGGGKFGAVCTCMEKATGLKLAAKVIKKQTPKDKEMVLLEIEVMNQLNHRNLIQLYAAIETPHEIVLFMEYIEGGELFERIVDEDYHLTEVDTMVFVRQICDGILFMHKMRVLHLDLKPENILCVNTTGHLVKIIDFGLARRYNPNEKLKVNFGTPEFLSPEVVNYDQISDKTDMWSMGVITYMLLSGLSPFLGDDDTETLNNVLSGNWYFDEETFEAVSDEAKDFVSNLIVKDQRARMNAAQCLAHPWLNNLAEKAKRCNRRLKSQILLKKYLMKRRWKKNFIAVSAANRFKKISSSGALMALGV
T2 sequence (P07333 20-972): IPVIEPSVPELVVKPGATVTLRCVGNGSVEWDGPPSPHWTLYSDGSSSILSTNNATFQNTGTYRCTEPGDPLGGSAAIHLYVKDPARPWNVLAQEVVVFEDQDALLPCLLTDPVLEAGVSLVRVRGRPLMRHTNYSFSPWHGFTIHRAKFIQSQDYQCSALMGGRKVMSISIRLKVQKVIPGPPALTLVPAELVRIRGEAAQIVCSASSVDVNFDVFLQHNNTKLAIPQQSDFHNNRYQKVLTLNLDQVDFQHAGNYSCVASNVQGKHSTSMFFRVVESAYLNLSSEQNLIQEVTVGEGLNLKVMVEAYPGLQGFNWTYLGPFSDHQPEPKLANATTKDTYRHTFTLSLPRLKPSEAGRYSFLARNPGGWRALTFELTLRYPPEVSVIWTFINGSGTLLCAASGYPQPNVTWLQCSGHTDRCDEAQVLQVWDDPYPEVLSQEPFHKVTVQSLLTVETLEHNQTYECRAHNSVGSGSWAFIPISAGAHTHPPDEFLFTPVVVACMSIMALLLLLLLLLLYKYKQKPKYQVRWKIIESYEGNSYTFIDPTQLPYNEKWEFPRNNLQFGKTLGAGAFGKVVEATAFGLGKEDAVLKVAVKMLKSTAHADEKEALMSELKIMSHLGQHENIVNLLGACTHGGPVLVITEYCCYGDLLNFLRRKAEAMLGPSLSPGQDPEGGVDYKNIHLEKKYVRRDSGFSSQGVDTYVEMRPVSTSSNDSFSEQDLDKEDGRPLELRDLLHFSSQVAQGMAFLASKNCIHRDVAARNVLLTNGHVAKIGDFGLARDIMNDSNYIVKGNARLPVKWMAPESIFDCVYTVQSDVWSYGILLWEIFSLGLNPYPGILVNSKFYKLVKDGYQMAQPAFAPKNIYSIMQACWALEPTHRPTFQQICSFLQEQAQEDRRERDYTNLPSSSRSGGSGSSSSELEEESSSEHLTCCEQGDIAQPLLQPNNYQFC
T6 sequence (P08581 25-1390): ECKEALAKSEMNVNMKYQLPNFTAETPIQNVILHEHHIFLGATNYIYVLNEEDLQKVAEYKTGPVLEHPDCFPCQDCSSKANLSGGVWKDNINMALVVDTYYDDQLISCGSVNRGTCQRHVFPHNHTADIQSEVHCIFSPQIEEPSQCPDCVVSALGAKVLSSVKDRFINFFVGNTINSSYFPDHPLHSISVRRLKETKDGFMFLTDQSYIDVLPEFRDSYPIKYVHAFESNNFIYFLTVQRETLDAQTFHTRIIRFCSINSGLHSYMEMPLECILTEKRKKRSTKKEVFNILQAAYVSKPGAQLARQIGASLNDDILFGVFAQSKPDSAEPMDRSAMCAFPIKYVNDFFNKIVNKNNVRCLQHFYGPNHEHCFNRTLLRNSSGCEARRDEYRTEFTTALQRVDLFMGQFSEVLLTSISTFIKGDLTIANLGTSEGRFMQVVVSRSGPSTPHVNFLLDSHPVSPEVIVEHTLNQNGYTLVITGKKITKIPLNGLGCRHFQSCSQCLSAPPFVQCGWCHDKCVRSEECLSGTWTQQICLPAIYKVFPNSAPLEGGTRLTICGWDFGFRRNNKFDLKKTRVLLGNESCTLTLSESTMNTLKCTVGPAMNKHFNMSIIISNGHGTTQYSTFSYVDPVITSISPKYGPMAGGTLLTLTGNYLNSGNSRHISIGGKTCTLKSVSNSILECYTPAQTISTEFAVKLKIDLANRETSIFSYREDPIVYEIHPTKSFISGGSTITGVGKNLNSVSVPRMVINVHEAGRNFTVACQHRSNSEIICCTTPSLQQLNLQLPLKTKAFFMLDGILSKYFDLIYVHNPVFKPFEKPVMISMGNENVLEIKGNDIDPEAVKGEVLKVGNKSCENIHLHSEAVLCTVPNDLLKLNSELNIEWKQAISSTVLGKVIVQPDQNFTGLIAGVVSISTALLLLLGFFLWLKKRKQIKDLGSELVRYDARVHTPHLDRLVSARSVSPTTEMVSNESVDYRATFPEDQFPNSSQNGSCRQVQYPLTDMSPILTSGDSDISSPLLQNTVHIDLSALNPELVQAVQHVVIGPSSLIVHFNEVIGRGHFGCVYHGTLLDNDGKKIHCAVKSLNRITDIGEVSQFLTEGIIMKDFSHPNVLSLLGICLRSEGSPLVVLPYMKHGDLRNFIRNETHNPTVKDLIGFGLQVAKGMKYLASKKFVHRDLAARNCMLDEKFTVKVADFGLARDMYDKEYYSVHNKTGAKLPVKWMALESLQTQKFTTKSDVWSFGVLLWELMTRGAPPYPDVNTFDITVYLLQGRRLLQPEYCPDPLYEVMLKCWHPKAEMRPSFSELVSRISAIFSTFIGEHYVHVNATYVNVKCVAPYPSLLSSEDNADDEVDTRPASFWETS
T3 sequence (Q9P0L2 whole entry): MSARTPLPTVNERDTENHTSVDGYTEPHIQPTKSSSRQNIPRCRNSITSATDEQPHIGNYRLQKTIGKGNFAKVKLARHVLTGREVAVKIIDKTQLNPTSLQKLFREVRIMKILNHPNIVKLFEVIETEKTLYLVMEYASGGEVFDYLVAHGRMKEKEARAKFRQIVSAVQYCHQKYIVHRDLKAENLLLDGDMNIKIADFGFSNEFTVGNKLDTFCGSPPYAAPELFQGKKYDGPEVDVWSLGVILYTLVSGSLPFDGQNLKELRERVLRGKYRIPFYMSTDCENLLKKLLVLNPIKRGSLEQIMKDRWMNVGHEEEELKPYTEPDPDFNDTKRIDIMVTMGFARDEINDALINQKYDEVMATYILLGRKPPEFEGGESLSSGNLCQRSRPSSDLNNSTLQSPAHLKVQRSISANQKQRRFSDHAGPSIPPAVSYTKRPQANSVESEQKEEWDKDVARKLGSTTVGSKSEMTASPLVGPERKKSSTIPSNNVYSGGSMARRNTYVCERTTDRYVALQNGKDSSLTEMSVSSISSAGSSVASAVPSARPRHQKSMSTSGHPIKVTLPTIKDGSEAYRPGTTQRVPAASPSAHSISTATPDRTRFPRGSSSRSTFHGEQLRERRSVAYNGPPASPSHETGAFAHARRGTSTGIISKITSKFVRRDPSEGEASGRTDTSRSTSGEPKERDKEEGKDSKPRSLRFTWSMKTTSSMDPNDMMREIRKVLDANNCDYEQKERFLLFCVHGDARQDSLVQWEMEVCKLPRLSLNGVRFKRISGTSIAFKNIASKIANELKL

Structure (SMILES)	Percentage inhibition of kinase enzyme activity [1] [%]	Percentage inhibition of kinase enzyme activity [2] [%]	Percentage inhibition of kinase enzyme activity [3] [%]	Percentage inhibition of kinase enzyme activity [4] [%]	Percentage inhibition of kinase enzyme activity [5] [%]	Percentage inhibition of kinase enzyme activity [6] [%]	Percentage inhibition of kinase enzyme activity [7] [%]	Percentage inhibition of kinase enzyme activity [8] [%]	Percentage inhibition of kinase enzyme activity [9] [%]
CC#CC(=O)N1CCC[C@H]1c1nc(-c2ccc(C(=O)Nc3ccccn3)cc2)c2c(N)nccn12 [acalabrutinib]	-2.54	7.76	-3.49	-4.59	-8.42	3.91	-4.71	-17.48	6.51
C=CC(=O)N1CCC([C@@H]2CCNc3c(C(N)=O)c(-c4ccc(Oc5ccccc5)cc4)nn32)CC1 [zanubrutinib]	1.42	82.03				1.41			-2.10
O=C(c1ccc(Oc2ccccc2)cc1Cl)c1c[nH]c2ncnc(N[C@@H]3CC[C@@H](CO)OC3)c12 [nemtabrutinib]	96.49	101.94	2.15	1.65	5.83	42.98	4.98	2.60	50.84
COc1ccc(F)cc1C(=O)NCc1ccc(-c2nn([C@@H](C)C(F)(F)F)c(N)c2C(N)=O)cc1 [pirtobrutinib]	7.19	-8.86	-8.44	9.51	-9.89	1.44	1.13	-3.69	-19.48
C=CC(=O)N1CCC[C@@H](n2nc(-c3ccc(Oc4ccccc4)cc3)c3c(N)ncnc32)C1 [ibrutinib]		18.52	2.46	0.66	2.93	11.55	-2.33	-16.74	54.68
